In US5386011A, “Hexapeptide anaphylatoxin-receptor ligands” (priority 1990, dated 1995) one finds Ki data, which are given here for 19 molecules.

Where a name gives a salt, the structure may show the parent alone. Where a SMILES comes first, the peptide text is derived from it. [ ]: non-standard residue; d: D form. The star is where a group is joined. Phe(4-I) = N[C@@H](Cc1ccc(I)cc1)C(=O)O; d1Nal = N[C@H](Cc1cccc2ccccc12)C(=O)O; NMeF = CN[C@@H](Cc1ccccc1)C(=O)O; Cha = N[C@@H](CC1CCCCC1)C(=O)O; dCha = N[C@H](CC1CCCCC1)C(=O)O; dPhg = N[C@@H](C(=O)O)c1ccccc1; NMe(benzyl) = CN(Cc1ccccc1)*; dNle = CCCC[C@@H](N)C(=O)O; Nle = CCCC[C@H](N)C(=O)O; Tfa = O=C(C(F)(F)F)*

The experiment has as its target T1, C5a Receptor (Homo sapiens, UniProt P21730).
T1 construct: 2.5-25 ug/mL of purified PMNL membrane fragments; endogenous in cells; host or cells: PMNL (polymorphonuclear leukocytes), purified membrane fragments
T1 sequence (P21730 1-350): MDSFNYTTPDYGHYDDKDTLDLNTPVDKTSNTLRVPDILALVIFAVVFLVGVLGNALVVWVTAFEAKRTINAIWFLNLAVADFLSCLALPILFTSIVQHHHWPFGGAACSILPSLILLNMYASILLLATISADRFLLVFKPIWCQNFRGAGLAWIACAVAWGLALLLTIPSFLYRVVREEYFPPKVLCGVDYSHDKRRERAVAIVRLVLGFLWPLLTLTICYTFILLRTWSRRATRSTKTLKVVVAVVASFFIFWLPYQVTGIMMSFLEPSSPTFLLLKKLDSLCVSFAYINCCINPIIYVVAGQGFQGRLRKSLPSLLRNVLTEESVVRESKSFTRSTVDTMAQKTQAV
Nature of the experiment: Anaphylatoxin receptor binding Ki determination: inhibition of 125I-C5a binding to purified PMNL membrane fragments. The conditions noted are these: 0.03-1 nM 125I-C5a, 2.5-25 ug/mL purified PMNL membrane fragments, filtration; read-out: Ki (In vitro C5a Receptor Binding Potency). As to the method:
Specific inhibition of C5a binding activity of representative compounds of the present invention was measured using 0.03-1 nM ^125 I-C5a with 2.5-25 ug/mL of purified PMNL membrane fragments (Borregaard, N.; Heiple, J. M.; Simons, E. R.; and Clark, R. A. J. Cell. Biol. 1983, 97, 52-61.). Free and membrane-bound ligand were separated by filtration.
For `CC(C)(C)CC(N)C(=O)N[C@@H](CCCCN)C(=O)N1CCC[C@H]1C(=O)N[C@H](CC1CCCCC1)C(=O)N[C@@H](CC1CCCCC1)C(=O)N[C@H](CCCNC(=N)N)C(=O)O` (mixture of isomers) [Example 6, H-{(R/S)-t-Butylalanyl}-Lysyl-Prolyl-{(2R)-2-Amino-3-cyclohexylproanoyl}-{(2S)-2-Amino-3-cyclohexylpropanoyl}-DArginyl-OH], the Ki was 0.08 µM.

With `CN[C@@H](Cc1ccccc1)C(=O)N[C@@H](CCCCN)C(=O)N[C@@H](CCC(=O)O)C(=O)N[C@H](CC1CCCCC1)C(=O)N[C@@H](Cc1ccccc1)C(=O)N[C@H](CCCNC(=N)N)C(=O)O` [Example 40, (N-Methyl)Phenylalanyl-Lysyl-Glutamyl-{(2R)-2-Amino-3-cyclohexylpropanoyl}-Phenylalanyl-DArginyl-OH] (H-[NMeF]KE[dCha]F[dR]-OH), the Ki is 0.1 µM.

Regarding `N=C(N)NCCC[C@@H](NC(=O)[C@H](CC1CCCCC1)NC(=O)[C@@H](CC1CCCCC1)NC(=O)[C@H](CCCCN)NC(=O)[C@H](CCCCN)NC(=O)[C@@H](N)Cc1ccccc1)C(=O)O` [Example 58, H-Phenylalanyl-Lysyl-Lysyl-{(2R)-2-Amino-3-cyclohexylpropanoyl}-{(2S)-2-Amino-3-cyclohexylpropanoyl}-DArginyl-OH] (H-FKK[dCha][Cha][dR]-OH), the Ki stood at 0.011 µM.

Turning to `CN[C@@H](Cc1ccccc1)C(=O)N[C@@H](CCCCN)C(=O)N1CCC[C@H]1C(=O)N[C@H](CC1CCCCC1)C(=O)N[C@@H](CC1CCCCC1)C(=O)N[C@H](CCCNC(=N)N)C(=O)N(C)Cc1ccccc1` [Example 97, (N-Methyl)Phenylalanyl-Lysyl-Prolyl-{(2R) -2-Amino-3-cyclohexylpropanoyl}-{(2S)-2-Amino-3-cyclohexylpropanoyl}-DArginyl-N-(Methyl)(Benzyl)] (H-[NMeF]KP[dCha][Cha][dR]-{NMe(benzyl)}), the Ki worked out at 0.52 µM.

Turning to `CC(C)C[C@H](NC(=O)[C@H](CC1CCCCC1)NC(=O)[C@H](CC1CCCCC1)NC(=O)[C@H](CCCCN)NC(=O)[C@@H](N)Cc1ccc(I)cc1)C(=O)N[C@H](C)C(=O)N[C@@H](CCCNC(=N)N)C(=O)O` [Example 107, H-(p-Iodo)Phenylalanyl-Lysyl-{(2S)-2-Amino-3-cyclohexylpropanoyl}-{(2S)-2-Amino-3-cyclohexylpropanoyl}-Leucyl-DAlanyl-Arginyl-OH] (H-[Phe(4-I)]K[Cha][Cha]L[dA]R-OH), the Ki was determined as 3.6 µM.

Take `CC(=O)N[C@@H](Cc1ccccc1)C(=O)N[C@@H](CCCCN)C(=O)N[C@@H](C)C(=O)N[C@H](CC1CCCCC1)C(=O)N[C@@H](CC1CCCCC1)C(=O)N[C@H](CCCNC(=N)N)C(=O)O` [Example 120, N-Acetyl-Phenylalanyl-Lysyl-Alanyl-{(2R)-2-Amino-3-cyclohexylpropanoyl}-{(2S)-2-Amino-3-cyclohexylpropanoyl}-DArginyl-OH] (Ac-FKA[dCha][Cha][dR]-OH): the Ki is 0.11 µM.

As to `CN[C@@H](Cc1ccccc1)C(=O)N[C@@H](CCCCN)C(=O)N1CCC[C@H]1C(=O)N[C@H](CC1CCCCC1)C(=O)N[C@@H](Cc1ccccc1)C(=O)N[C@H](CCCNC(=N)N)C(=O)O` [Example 128, (N-Methyl) Phenylalanyl-Lysyl-Prolyl-{(2R)-2-Amino-3-cyclohexylpropanoyl}-Phenylalanyl-DArginyl-OH] (H-[NMeF]KP[dCha]F[dR]-OH), the Ki came out at 0.039 µM.

In the case of `CN[C@@H](Cc1ccccc1)C(=O)N[C@@H](CCCCN)C(=O)N[C@@H](C)C(=O)N[C@H](CC1CCCCC1)C(=O)N[C@@H](CC1CCCCC1)C(=O)N[C@H](CCCNC(=N)N)C(=O)O` [Example 152, (N-Methyl)Phenylalanyl-Lysyl-Alanyl-{(2R)-2-Amino-3-cyclohexylpropanoyl}-{(2S)-2-Amino-3-cyclohexylpropanoyl}-DArginyl-OH] (H-[NMeF]KA[dCha][Cha][dR]-OH), the Ki stood at 0.083 µM.

As for `CN[C@@H](Cc1ccccc1)C(=O)N[C@@H](CCCCN)C(=O)N1CCC[C@H]1C(=O)N[C@H](CC1CCCCC1)C(=O)N[C@@H](CC1CCCCC1)C(=O)N[C@H](CCCNC(=N)N)C(=O)O` [Example 166, (N-Methyl)Phenylalanyl-Lysyl-Prolyl-{(2R)-2-Amino-3-cyclohexylpropanoyl}-{(2S)-2-Amino-3-cyclohexylpropanoyl}-DArginyl-OH] (H-[NMeF]KP[dCha][Cha][dR]-OH), the inhibition constant Ki worked out at 0.035 µM.

Consider `CCCC[C@H](NC(=O)[C@H](Cc1ccccc1)NC)C(=O)N1CCC[C@H]1C(=O)N[C@H](CC1CCCCC1)C(=O)N[C@@H](CC1CCCCC1)C(=O)N[C@H](CCCNC(=N)N)C(=O)O` [Example 187, (N-Methyl)Phenylalanyl-Norleucyl-Prolyl-{(2R)-2-Amino-3-cyclohexylpropanoyl}-{(2S)-2-Amino-3-cyclohexylpropanoyl}-DArginyl-OH] (H-[NMeF][Nle]P[dCha][Cha][dR]-OH), for which the Ki came out at 0.3 µM.

For the molecule `CC(C)C[C@@H](NC(=O)[C@H](CC1CCCCC1)NC(=O)[C@H](CC1CCCCC1)NC(=O)[C@H](C)NC(=O)[C@H](CCCCN)NC(=O)[C@@H](N)Cc1ccccc1)C(=O)N[C@@H](CCCNC(=N)N)C(=O)O` [Example 195, H-Phenylalanyl-Lysyl-Alanyl-{(2S)-2-Amino-3-cyclohexylpropanoyl}-{(2S)-2-Amino-3-cyclohexylpropanoyl}-DLeucyl-Arginyl-OH] (H-FKA[Cha][Cha][dL]R-OH), the Ki is 1.5 µM.

For the molecule `CN[C@@H](Cc1ccccc1)C(=O)N[C@@H](CCCCN)C(=O)N1CCC[C@H]1C(=O)N[C@H](CC1CCCCC1)C(=O)N[C@@H](Cc1ccccc1)C(=O)N[C@H](Cc1ccccc1)C(=O)O` [Example 212, (N-Methyl)Phenylalanyl-Lysyl-Prolyl-{(2R)-2-Amino-3-cyclohexylpropanoyl}-Phenylalanyl-DPhenylalanyl-OH] (H-[NMeF]KP[dCha]F[dF]-OH), the Ki turned out to be 0.11 µM.

Consider `CC(C)C[C@H](NC(=O)[C@H](CC1CCCCC1)NC(=O)[C@H](CC1CCCCC1)NC(=O)[C@H](C)NC(=O)[C@H](CCCCN)NC(=O)[C@@H](N)Cc1ccccc1)C(=O)N[C@H](CCCNC(=N)N)C(=O)O` [Example 214, H-Phenylalanyl-Lysyl-Alanyl-{(2S)-2-Amino-3-cyclohexylpropanoyl}-{(2S)-2-Amino-3-cyclohexylpropanoyl}-Leucyl-DArg] (H-FKA[Cha][Cha]L[dR]-OH), for which the Ki was found to be 0.09 µM.

Regarding `CN[C@@H](Cc1ccccc1)C(=O)N[C@@H](CCCCN)C(=O)N1CCC[C@H]1C(=O)N[C@H](Cc1cccc2ccccc12)C(=O)N[C@@H](Cc1ccccc1)C(=O)N[C@H](CCCNC(=N)N)C(=O)O` [Example 224, (N-Methyl)Phenylalanyl-Lysyl-Prolyl-D(1-Naphthylalanyl)-Phenylalanyl-DArginyl-OH] (H-[NMeF]KP[d1Nal]F[dR]-OH), the Ki came out at 0.012 µM.

Take `CN[C@@H](Cc1ccccc1)C(=O)N[C@@H](CCCCNC(=O)C(F)(F)F)C(=O)N1CCC[C@H]1C(=O)N[C@H](CC1CCCCC1)C(=O)N[C@@H](CC1CCCCC1)C(=O)N[C@H](CCCNC(=N)N)C(=O)O` [Example 305, (N-Methyl)Phenylalanyl-Lysyl(N-epsilon-trifluoroacetyl)-Prolyl-{(2R)-2-Amino-3-cyclohexylpropanoyl}-{(2S)-2-Amino-3-cyclohexylpropanoyl}-DArginyl-OH] (H-[NMeF]K(Tfa)P[dCha][Cha][dR]-OH): the Ki turned out to be 0.22 µM.

With `CC(C)[C@H](NC(=O)[C@H](CCCCN)NC(=O)[C@@H](N)Cc1ccccc1)C(=O)N[C@H](CC1CCCCC1)C(=O)N[C@@H](CC1CCCCC1)C(=O)N[C@H](CCCNC(=N)N)C(=O)O` [Example 360, H-Phenylalanyl-Lysyl-Valyl-{(2R)-2-Amino-3-cyclohexylpropanoyl}-{(2S)-2-Amino-3-cyclohexylpropanoyl}-DArginyl-OH] (H-FKV[dCha][Cha][dR]-OH), the Ki was determined as 0.053 µM.

As to `CN[C@@H](Cc1ccccc1)C(=O)N[C@@H](CCCCN)C(=O)N1CCC[C@H]1C(=O)N[C@H](CC1CCCCC1)C(=O)N[C@@H](Cc1ccccc1)C(=O)N[C@@H](C(=O)O)c1ccccc1` [Example 367, (N-Methyl)Phenylalanyl-Lysyl-Prolyl-{(2R)-2-Amino-3-cyclehexylpropanoyl}-Phenylalanyl-{(R)-Phenylglycinyl}-OH] (H-[NMeF]KP[dCha]F[dPhg]-OH), the Ki is 1.9 µM.

For the molecule `C[C@H](NC(=O)[C@H](CCCCN)NC(=O)[C@@H](N)Cc1ccccc1)C(=O)N[C@H](CC1CCCCC1)C(=O)N[C@@H](CC1CCCCC1)C(=O)N[C@H](CCCNC(=N)N)C(=O)O` [Example 370, H-Phenylalanyl-Lysyl-Alanyl-{(2R)-2-Amino-3-cyclohexylpropanoyl}-{(2S)-2-Amino-3-cyclohexylpropanoyl}-DArginyl-OH] (H-FKA[dCha][Cha][dR]-OH), the Ki amounted to 0.085 µM.

Regarding `CCCC[C@@H](NC(=O)[C@H](CC(C)C)NC(=O)[C@H](CC1CCCCC1)NC(=O)[C@H](CC1CCCCC1)NC(=O)[C@H](C)NC(=O)[C@H](CCCCN)NC(=O)[C@@H](N)Cc1ccccc1)C(=O)O` [Example 390, H-Phenylalanyl-Lysyl-Alanyl-{(2S)-2-Amino-3-cyclohexylpropanoyl}-{(2S)-2-Amino-3-cyclohexylpropanoyl}-Leucyl-DNorleucyl-OH] (H-FKA[Cha][Cha]L[dNle]-OH), the Ki is 4 µM.

One may read the Ki as a dissociation constant, usually derived from enzyme kinetics or from competition with a known ligand.
